Source: patent US12209073B2, “Polymorphs of a dihydroorotate dehydrogenase (DHOD) inhibitor” (KIORA PHARMACEUTICALS GmbH, priority 2022, dated 2025)
In brackets after ≈: the same amount, converted by molar mass. Entries after “also recorded” stand apart in the source; their conditions may differ.

Legend:
[1] = Thermodynamic solubility in FaSSIF; type: physicochemical; settings: for XRPD post-TS (residual solid): after thermodynamic solubility in FaSSIF
Procedure: Thermodynamic Aqueous Solubility. Aqueous solubility was determined by suspending sufficient compound in relevant media to give a maximum final concentration of ≥10 mg/ml of the parent free-form of the compound. The suspension was equilibrated at 25° C., on a Heidolph plate shaker set to 750 rpm for 24 hours. The pH of the saturated solution was then measured, and the suspension filtered through a glass fiber C filter (particle retention 1.2 μm) and diluted appropriately. Quantitation was by HPLC with reference to a standard solution of approximately 0.15 mg/ml in DMSO. Different volumes of the standard, diluted and undiluted sample solutions were injected. The solubility was calculated using the peak areas determined by integration of the peak found at the same retention time as the principal peak in the standard injection. [table] In addition to the competitive slurrying, Form A and Form B were both submitted to thermodynamic solubility measurements in FaSSIF media, as well as IDR in pH 7.4 phosphate buffer. The results are shown in Table 19 The full reports for both measurements can be found in Appendix 2—Analytical Service Reports.

[2] = Intrinsic dissolution rate (IDR) in pH 7.4 phosphate buffer; type: physicochemical; settings: for XRPD post-IDR: after IDR in pH 7.4 phosphate buffer; for Dissolution rate (pH 7.4 buffer): pH 7.4 phosphate buffer
Excerpt: In addition, the thermodynamic solubility and the IDR of the two forms was compared in selected media. In addition to the competitive slurrying, Form A and Form B were both submitted to thermodynamic solubility measurements in FaSSIF media, as well as IDR in pH 7.4 phosphate buffer. The results are shown in Table 19 The full reports for both measurements can be found in Appendix 2—Analytical Service Reports.

[3] = Accelerated storage stability (XRPD & HPLC); type: physicochemical
Procedure: Chemical Purity Determination by HPLC. Purity analysis was performed on an Agilent HP1100/Infinity II 1260 series system equipped with a diode array detector and using OpenLAB software. The full method details are provided below in Table 12: [table] HPLC indicated the material to have a purity of 99.6% (FIG. 12A). […] The sample was left for an additional 22 days (total 30 days storage) and re-analyzed by XRPD, appearing as Form A, lacking the additional peaks previously observed (FIG. 13B). It was therefore possible that contamination of sample on the instrument in the previous 8-day timepoint was the likely cause of the additional peaks, rather than a form chance or degradation. […] (92 J/g) (FIG. 16). PLM and SEM images indicate the particles to be a series of spherical agglomerates (ca. 50 to 100 μm in diameter), which consist of small (<10 μm) plate-like crystals (FIGS. 17A-17B). HPLC analysis indicated the sample maintained a high purity of 99.5% (FIG. 18A). […] There is a small hysteresis between adsorption and desorption. The sample was unchanged by XRPD post-GVS analysis. […]

[4] = Gravimetric Vapor Sorption (GVS); type: physicochemical; settings: for Hygroscopicity (GVS): 0-90% RH; for Hygroscopicity (GVS) / GVS mass uptake, equivalent of water / GVS mass uptake: 25° C.; for XRPD Post-GVS: after GVS isotherm; for GVS mass uptake, equivalent of water / GVS mass uptake: between 0 and 90% RH
Procedure: Gravimetric Vapor Sorption (GVS). Sorption isotherms were obtained using a SMS DVS Intrinsic moisture sorption analyzer, controlled by DVS Intrinsic Control software. The sample temperature was maintained at 25° C. by the instrument controls. The humidity was controlled by mixing streams of dry and wet nitrogen, with a total flow rate of 200 ml/min. The relative humidity was measured by a calibrated Rotronic probe (dynamic range of 1.0-100% RH), located near the sample. The weight change, (mass relaxation) of the sample as a function of % RH was constantly monitored by a microbalance (accuracy ±0.005 mg). Typically, 5-30 mg of sample was placed in a tared mesh stainless steel basket under ambient conditions. The sample was loaded and unloaded at 40% RH and 25° C. (typical room conditions). A moisture sorption isotherm was performed as outlined below (2 scans per complete cycle). The standard isotherm was performed at 25° C. at 10% RH intervals over a 0-90% RH range. Typically, a double cycle (4 scans) was carried out. Data analysis was carried out within Microsoft Excel using the DVS Analysis Suite. [table] The sample was recovered after completion of the isotherm and re-analyzed by XRPD.

[5] = Competitive slurrying of Form A and Form B; type: physicochemical; settings: competitive slurrying of Form A and Form B in a range of solvents at 5, 25 and 50° C.
Procedure: The aim of this work was to investigate the order of stability of the scaled-up Form A and Form B via competitive slurrying of the materials in a range of solvents at 5° C., 25° C. and 50° C.
The proposed solvents were aliquoted (1 ml) into HPLC vials and held at 5° C., 25° C. and 50° C. respectively, equilibrating at 300 rpm. […] The saturated solutions were allowed to equilibrate overnight.
Approximately 300 mg of Form B, prepared as described previously in Example 5, and the Form A were added to a 20 ml scintillation vial. The vial was subjected to turbula mixing for over 2 hours to ensure the mixture was homogenous. Approximately 30 mg of a mixture of Form A and Form B was added to a series HPLC vials. The vials were placed at 5, 25 and 50° C., 300 rpm. The suspensions prepared previously were filtered through a PTFE syringe directly into each vial to suspend the prepared form mixture in a saturated solution of the target solvent. Polymorph turnover was investigated by taking a 30-50 μl aliquot of the suspension and analyzing by XRPD.

[6] = Solubility in 50 mM phosphate buffer; type: physicochemical
Excerpt: (§1) The general tested characteristics of 3-(2,3,5,6-tetrafluoro-3′-trifluoromethoxy-biphenyl-4-ylcarbamoyl)-thiophene-2-carboxylic acid (PP-001) are shown below in Table 8.

[7] = Stability at pH 2, pH 7.4 and pH 8.5; type: physicochemical
Excerpt: as §1

[8] = Solubility and solvent selection assessment; type: physicochemical
Procedure: PP-001 (ca. 20 mg, Batch #1) was treated with increasing aliquots of solvent until either a clear solution or maximum of 80 vol ([…]) of solvent was added. Samples were left for […] at 25° C., 300 rpm, after each solvent addition before observations were recorded. Where possible, samples were heated to 50° C. and further observations were taken. Solutions at 25 or 50° C. were cooled to 5° C. at 0.1° C./min, 300 rpm and held overnight. Any suspensions at 50° C. were subjected to maturation cycling between RT/50° C. (4 hours per cycle). Solvents unsuitable for heating to 50° C. or cooling to 5° C. were subjected to evaporation, antisolvent addition at RT or maturation at RT, depending on the solvent.
After 24 h, any solutions at 5° C. were subjected to evaporation at RT with the lid removed. Samples subjected to evaporation were analyzed once dry. The remaining suspensions were left for 3 days at conditions before being extracted using an SPE cartridge and frit under positive pressure filtration.

[9] = pKa of PP-001; type: physicochemical
Excerpt: as §1

[10] = Stability in artificial gastric juice, simulated intestinal fluid and PBS; type: in vitro ADME
Excerpt: as §1

[11] = Solvent assessment for lyophilization; type: physicochemical; settings: maximum of 60 vol
Procedure: Preparation and solubility of amorphous PP-001. PP-001 was treated with increasing aliquots of solvent until a maximum of 60 vol (1800 μl) was added in a HPLC vial.
Samples that formed solutions were positive pressure filtered using a PTFE syringe filter to remove any remaining solid particulates. The solutions were then flash frozen in a dry ice/acetone bath and lyophilized overnight to remove the solvent. Solids isolated post-lyophilization were analyzed by XRPD and characterized.

[12] = Stability in human plasma; type: in vitro ADME
Excerpt: as §1

[13] = Oral bioavailability; settings: in vivo, depending on formulation used
Excerpt: as §1

[14] = LogP (measured) of PP-001; type: physicochemical
Excerpt: as §1

In the case of `O=C(Nc1c(F)c(F)c(-c2cccc(OC(F)(F)F)c2)c(F)c1F)c1ccsc1C(=O)O` [Form A, 3-(2,3,5,6-tetrafluoro-3′-trifluoromethoxy-biphenyl-4-ylcarbamoyl)-thiophene-2-carboxylic acid], the solubility thermodynamic at 24 h ([1]; FaSSIF, 25 °C, pH 6.4, fassif, thermodynamic from solid, FaSSIF, 25° C., 24 hours, read-out: Thermodynamic solubility (TS) in FaSSIF) is reported as 760 µg/mL (≈ 1590 µM), the “XRPD post-TS (residual solid)” value [1] is reported as “Unchanged, residual” and the “XRPD post-TS (residual solid)” value ([1]; listed as PP-001 Form A) is reported as “largely unchanged; also recorded: XRPD unchanged in form plus NaCl reference peaks”. For the same compound, the “XRPD post-IDR” value [2] was “Unchanged”, the “Dissolution rate (pH 7.4 buffer)” value [2] was 0.071 mg/min/cm^2 and the XRPD after storage ([3]; 25° C./97% RH, 8 days, listed as PP-001 Form A) was “a small peak was gained at 8.1 2θ angle and a loss of a small peak at 17.6 2θ angle; also recorded: Small peak gain at 8.1 2Θ and a loss of small peaket 17.6”. For the same compound, the XRPD after storage ([3]; 40° C./75% RH, 8 days, listed as PP-001 Form A) was “Unchanged”, the “Hygroscopicity (GVS)” value ([4]; listed as PP-001 Form A) was “mass uptake. Sample is non- hygroscopic” and the “XRPD Post-GVS” value ([4]; listed as PP-001 Form A) was “Unchanged”. For the same compound, the “GVS mass uptake, equivalent of water” value [4] was 0.03 mol, the GVS mass uptake ([4]; listed as PP-001 Form A) was 0.12 wt % and the “Relative thermodynamic stability of the forms” value [5] was “thermodynamically more stable form; also recorded: preferred form over all conditions and solvents tested”.
In the case of `O=C(Nc1c(F)c(F)c(-c2cccc(OC(F)(F)F)c2)c(F)c1F)c1ccsc1C(=O)O` [Form B, 3-(2,3,5,6-tetrafluoro-3′-trifluoromethoxy-biphenyl-4-ylcarbamoyl)-thiophene-2-carboxylic acid], the “Thermodynamic solubility (TS) in FaSSIF” value ([1]; FaSSIF, 25° C., 24 hours) is reported as 930 µg/mL, the “XRPD post-TS (residual solid)” value [1] is reported as “Unchanged, residual” and the “XRPD post-IDR” value [2] is reported as “Unchanged”. The “Dissolution rate (pH 7.4 buffer)” value [2] was 0.15 mg/min/cm^2, the “HPLC purity after storage” value ([3]; 25° C./97% RH, 7 days) was 99.4% and the XRPD after storage ([3]; 25° C./97% RH, 7 days) was “no observable changes”. For the same compound, the XRPD after storage ([3]; 25° C./97% RH, 7 days, listed as PP-001 Form B) was “Unchanged”, the “HPLC purity after storage” value ([3]; 40° C./75% RH, 7 days) was 99.6% and the XRPD after storage ([3]; 40° C./75% RH, 7 days) was “no observable changes”. For the same compound, the XRPD after storage ([3]; 40° C./75% RH, 7 days, listed as PP-001 Form B) was “Unchanged”, the “Hygroscopicity (GVS)” value [4] was “non-hygroscopic” and the “XRPD Post-GVS” value [4] was “unchanged”. The “XRPD Post-GVS” value ([4]; listed as PP-001 Form B) was “Unchanged”, the GVS mass uptake [4] was 0.10 wt % and the “GVS mass uptake, equivalent of water” value [4] was 0.03 mol. The GVS mass uptake ([4]; listed as PP-001 Form B) was 0.10 wt %.
With `O=C(Nc1c(F)c(F)c(-c2cccc(OC(F)(F)F)c2)c(F)c1F)c1ccsc1C(=O)O` [PP-001, 3-(2,3,5,6-tetrafluoro-3′-trifluoromethoxy-biphenyl-4-ylcarbamoyl)-thiophene-2-carboxylic acid] the solubility ([6]; pH 4, aqueous buffer) was 1.4 µg/mL (≈ 2.92 µM), the solubility ([6]; pH 7.4, aqueous buffer) was 854 µg/mL (≈ 1780 µM) and the solubility ([6]; pH 9, aqueous buffer) was 833 µg/mL (≈ 1740 µM). For the same compound, the “Stability (stable for)” value ([7]; pH 2 (HCl)) was “Stable for >16 h at pH 2 (HCl), pH 7.4 (trisbuffer),”, the “Stability (stable for)” value ([7]; pH 7.4 (tris buffer)) was “Stable for >16 h at pH 2 (HCl), pH 7.4 (trisbuffer),” and the “Stability (stable for)” value ([7]; pH 8.5 (tris buffer)) was “Stable for >16 h at pH 2 (HCl), pH 7.4 (trisbuffer),”. The Solubility in solvents ([8]; 25° C., dissolution in volumes <80 vol, in 15 of the solvents tested) was “good solubility”, the Solubility in solvents ([8]; 50° C., IPA, 1-propanol, ACN, MeOH:water (3%), MeOH:water (5%), EtOH:water (5%), IPA:water (5%) and IPA:water (25%)) was “Clear solutions” and the Solubility in solvents ([8]; aprotic, polar solvents such as THF, DMSO and acetone) was “higher solubility”. The Solubility in solvents ([8]; heptane, toluene, chloroform and water, up to 80 vol, heated to 50° C.) was “remained suspensions”, the pKa [9] was 2.23 and the “Stability (stable for)” value ([10]; PBS pH 7.4) was “Stable for >6 h in artificial gastric juice, simulated”. For the same compound, the “Stability (stable for)” value ([10]; artificial gastric juice) was “Stable for >6 h in artificial gastric juice, simulated”, the “Stability (stable for)” value ([10]; simulated intestinal fluid) was “Stable for >6 h in artificial gastric juice, simulated” and the Solubility for lyophilization ([11]; 1,4-dioxane) was “soluble”. For the same compound, the Solubility for lyophilization ([11]; THF:water (70:30)) was “soluble”, the “Stability (stable for)” value [12] was “Stable for >6 h in artificial gastric juice, simulated” and the bioavailability [13] was 15 to 30%. The logP [14] was 4.19.
